{
  "source": "patent US20110104121A1",
  "about": "“Female Reproductive Tract and Anal Prophylaxes” (priority 2008, published 2011)",
  "key": {"HIV-1 X4/T-tropic IIIB": {"system": "HIV-1 X4/T-tropic IIIB", "test": "TZM-bl infectivity assay, HIV-1 IIIB", "assay_type": "cell-based", "experimental": "(§1) The TZM indicator cell line is a HeLa cell derivative that expresses high levels of CD4, CCR5 and CXCR4 (Wei, et al. (2002) Antimicrob. Agents Chemother. 46(6):1896-905). The cells contain HIV long terminal repeat (LTR)-driven β-galactosidase and luciferase reporter cassettes that are activated by HIV tat expression.\n(§2) TZM cells were seeded at 2×10^4 cells per well in a 96-well microtiter plate and allowed to adhere overnight at 37° C. Varying doses of recombinant human Trappin-2/Elafin (Peprotech, Rocky Hill, N.J.) were incubated with HIV-1 IIIB and BaL at multiplicity of infection (MOI) 1 for 1 hour at 37° C. in a final volume of 100 μl. Following incubation, the media was aspirated from TZM cells and the virus plus Trappin-2/Elafin was added to the cells along with 100 μl of TZM media. Luciferase activity was measured after 48 hours at 37° C. with 5% CO2 in a humidified incubator. Briefly, the supernatants were aspirated, and the cells were lysed with a BETA GLO luciferase assay substrate. Light intensity of each well was measured using a luminometer. Uninfected cells were used to determine background luminescence. All infectivity assays were performed in quadruplicate.\n(§3) Other experiments were conducted in order to determine whether the inhibitory effects of Trappin-2/Elafin were at the cell surface level such as the blocking of a co-receptor. For these experiments, varying doses of Trappin-2/Elafin were directly added to TZM cells and incubated for 1 hour at 37° C. prior to washing with 1×PBS and addition of IIIB or BaL viruses. In additional experiments to determine possible post-infection mechanisms of inhibition by Trappin-2/Elafin, TZM cells were infected with HIV-1 IIIB and BaL at MOI 1 and were washed at 6 hours and 24 hours post-infection followed by the addition of 10 ng/ml rTrappin-2/Elafin. Assays were developed at 48 hours by addition of the BETA-GLO substrate and measuring relative light units using a luminometer.\n(§4) Since HIV-1 is an important sexually transmitted pathogen, the activity of recombinant Trappin-2/Elaf in (rTrappin-2/Elafin) was evaluated against HIV-1 X4/T-tropic IIIB and R5/M-tropic BaL. HIV-1 IIIB and BaL were incubated with rTrappin-2/Elafin at 0.01, 0.1, 1, and 10 ng/ml for 1 hour at 37° C. TZM-bl indicator cells were plated the previous day at 25,000 cells per well and grown to 70-80% confluence. The virus-Trappin-2/Elafin mixture was added to the TZM cells and incubated for 48 hours at 37° C. At the end of the incubation period, BETA-GLO substrate was added to the cells and viral infection was quantified using a luminometer, expressed as relative light units (RLU). The data was expressed as percent of control with virus-only control set at 100%. […] Therefore, the concentrations of Trappin-2/Elafin showing anti-HIV-1 activity were in the range of physiological levels of this molecule that were secreted by the FRT epithelial cells. Since the inhibitory activity was observed as a result of pre-incubation of HIV-1 and rTrappin-2/Elafin, it is contemplated that the effect of Trappin-2/Elafin on viral infection was direct. […]\n(§5) Laboratory-adapted viral strains HIV-1 IIIB (×4) and BaL (R5) were obtained and virus stocks were propagated in PHA-stimulated human PBMC and stored frozen at −80° C. Virus stocks produced in PBMC of molecularly cloned HIV-1 NL4.3 (×4; lab-adapted) and YU-2.c (R5; directly cloned without culture) were obtained. Virus titers were determined on TZM-bl cells as described herein. Also used was a PBMC-derived virus stock of pCH077.c, a recently generated Clade B infectious molecular clone matching the nucleotide sequence determined to be the transmitted/founder virus sequence of CHAVI subject 700010077. […]"}, "HIV-1 R5/M-tropic BaL": {"system": "HIV-1 R5/M-tropic BaL", "test": "TZM-bl infectivity assay, HIV-1 BaL", "assay_type": "cell-based", "details": "for post-infection inhibition, BaL: 20 ng/mL", "experimental": "as §1, §2, §3, §4, §5"}, "[1]": {"test": "systemic inflammatory response to E. coli endotoxin after hydrocortisone pre-treatment in volunteers", "assay_type": "in vivo, human", "details": "for plasma G-CSF concentrations after LPS, vs Control Group: multiplex immunobead", "text": "Materials and Methods. Participants (n=36) were healthy male and female volunteers who were taking no chronic medications (other than oral contraceptives) and who were between the ages of 18 and 55.\nOn Day 1 of the study, participants were randomized in a double-blind manner to a Control Group, a Stress Group or a Pharm Group. A peripheral intravenous catheter was inserted in a hospital outpatient facility where participants remained during the day. For six hours, Control Group participants received intravenous saline at […] by infusion pump; Stress Group participants received 1.5 μg/kg/minute hydrocortisone (SOLUCORTEF®, Upjohn) in normal saline at 10 ml/hour, and Pharm Group participants received 3.0 μg/kg/minute hydrocortisone in normal saline at 10 ml/hour. The following day (Day 2), participants were admitted to an acute care facility where a peripheral intravenous catheter was again inserted in a proximal arm vein. Continuous electrocardiographic and pulse oximetry measurements were initiated; blood pressure and core temperature were measured every 15 minutes for the next five hours and every 30 minutes for the next 4 hours. Participants received 10 ml/kg lactated Ringer's solution intravenously over the first 2 hours after which the infusion was decreased to 1.5 ml/kg/hour. After the first hour, participants were administered 2 ng/kg E. coli endotoxin intravenously over 2 minutes. Participants remained in the acute care facility for remainder of the day with continuous nursing care and under the direct supervision of a physician. The intravenous catheter was removed after 9 hours. The following day (Day 3) and 2 days later (Day 5), repeat blood samples were obtained by venipuncture.\nSalivary free cortisol measurements were made on Day 1 to compare the in vivo cortisol pre-treatment with laboratory reports that typically test the effects of free glucocorticoid concentrations. On Day 2 of the study, total plasma cortisol was measured to allow for comparison with the many clinical reports that have assessed these hormones during experimental endotoxemia and in endotoxemic patients. For salivary free cortisol measurements, saliva samples were collected with a […]™ collection device and stored at −80° C. until analysis by SALIMETRICS® Expanded Range High Sensitivity Salivary Cortisol Enzyme Immunoassay Kit (State College, Pa.). The analytical sensitivity of this assay is 3 ng/dL. For total cortisol, plasma was separated from heparinized whole blood and stored at −80° C. until analysis for plasma cortisol on an […]® 1000 analyzer using a Siemens Cortisol kit (Los Angeles, Calif.). The analytical sensitivity of this assay is 0.2 μg/dL. All adrenocorticotropic hormone (ACTH) measurements were performed on the […]® 1000 analyzer using a Siemens ACTH kit (Los Angeles, Calif.). The analytical sensitivity of this assay is 9 pg/mL. C-reactive protein (CRP) measurements were performed on the Roche P Module using the Roche High Sensitivity CRP kit (Indianapolis, Ind.). Analytical sensitivity of this assay is 0.1 mg/L. Complete blood counts were performed on the ADVIA 120® Hematology Analyzer using Siemens reagents (Ramsey, Minn.).\nPlasma samples were collected and frozen at −80° C. for batched measurement of TNFalpha, IL-6 and IL-10 concentrations. TNFalpha was measured using a TNFalpha sandwich ELISA (paired antibodies; BD Biosciences Pharmingen, San Diego, Calif.). IL-6 levels were determined using an IL-6 ELISA kit (Peprotech, Rocky Hill, N.J.). IL-10 was measured using an IL-10 ELISA kit (Biosource, Camarillo, Calif.). Further cytokine testing was completed on frozen samples using multiplex immunobead technology (Luminex Corp.) which combines the principle of a sandwich immunoassay with fluorescent bead-based technology, allowing individual and multiplex analysis of multiple analytes in a single microtiter well. […]"}, "[2]": {"system": "Monocytes-derived Dendritic cells (MDDCs)", "test": "surface receptor expression on monocyte-derived dendritic cells, flow cytometry", "assay_type": "cell-based, human", "experimental": "Materials and Methods. Uterine epithelial cell line (ECC-1) was cultured according to established methods to establish cellular polarity with apical and basolateral compartments (Schaefer, et al. (2004) Immunology 112:428-436). The formation of tight junctions by the epithelial cell monolayer was routinely monitored by measurement of transepithelial resistance (TER) (Richardson, et al. (1995) Biol. Reprod. 53:488-498). […] The pooled media was centrifuged for 5 minutes at 10,000 g and stored at −80° C. for use in subsequent studies.\nPeripheral blood mononuclear cells (PBMC) were obtained from residues of platelet pheresis according to known methods (Dietz, et al. (2006) Transfusion 46:2083-2089). Monocytes were subsequently enriched with Rosette Sep reagent (StemCell, Vancouver, BC). Blood specimens were from healthy adult males. Monocytes-derived Dendritic cells (MDDCs) were in vitro generated with GM-CSF (50 ng/ml) and IL-4 (50 ng/ml) (PeproTech Inc, Rocky Hill, N.J.) (Sallusto Lanzavecchia (1994) J. Exp. Med. 179:1109-1118). MDDCs were differentiated for 7 days in the presence or absence of 24-hour conditioned medium (1:1 dilution) obtained from ECC-1. In some experiments TGF-beta receptor 1 blocker, SB431542 (10 μM; Tocris Cookson, Inc., St. Louis, Mo.) (Eriksson, et al. (2006) Am. J. Reprod. Immunol. 56:321-328; Shen, et al. (2007) Clin. Exp. Immunol. 149(1):155-61) was simultaneously added with ECC-1 CM for the entire duration of the differentiation. As positive control for TGF-beta effects on MDDCs, experimental conditions were included in which MDDCs were differentiated with recombinant human TGF-beta1 at three different concentrations (0.1, 1 and 10 ng/mL) in the presence or absence of SB431542. Following 7 days of culture, cells were harvested, washed and subsequently used for flow cytometry analyses.\nFollowing six days of in vitro differentiation, surface staining of MDDCs was performed with the following fluorochrome-labeled monoclonal antibodies: CD1a (HI149), CD14 (61D3), from Ebioscience (San Diego, Calif.); and CD163 (215927), CCR5 (45531), CXCR4 (12G5), DC-SIGN (120507) from R&D Systems (Minneapolis, Minn.). Matched isotype controls for the antibodies were used to control for non-specific binding. Following antibody staining, cells were washed with staining buffer and fixed with 2% methanol-free paraformaldehyde in 1×PBS (2% PFA), followed by analysis with a Becton Dickinson FACS CALIBUR (San Jose, Calif.). The acquired FACS data were analyzed by CELL QUEST (BD Biosciences).\nStatistical analysis was performed using two-way analysis of variance (ANOVA) ([…] Prism Version 5.0; […] Software Inc., San Diego, Calif.). A value of P<0.05 was considered significant."}, "[3]": {"details": "cells pre-incubated 1 hour, washed before virus"}, "[4]": {"details": "virus pre-incubated 1 hour with 2, 20, 200 ng/mL, 48 hours"}},
  "data": [
    {"compound": "rCCL20/MIP3α: recombinant human CCL20/MIP3α (Peprotech)", "values": [
      {"measurement": "post-infection inhibition, IIIB", "setting": "HIV-1 X4/T-tropic IIIB; added 6 and 24 hours post-infection, 20 ng/mL", "result": "no significant post-infection inhibition"},
      {"measurement": "inhibition of X4/IIIB after pre-incubation of TZM cells", "setting": "HIV-1 X4/T-tropic IIIB; [3]", "result": "no significant inhibition"},
      {"measurement": "inhibition of X4/IIIB", "setting": "HIV-1 X4/T-tropic IIIB; [4]", "result": "inhibited"},
      {"measurement": "post-infection inhibition, BaL", "setting": "HIV-1 R5/M-tropic BaL; added 6 hours post-infection", "result": "slight inhibition"},
      {"measurement": "post-infection inhibition, BaL", "setting": "HIV-1 R5/M-tropic BaL; added 24 hours post-infection", "result": "no significant post-infection inhibition"},
      {"measurement": "inhibition of R5/BaL after pre-incubation of TZM cells", "setting": "HIV-1 R5/M-tropic BaL; [3]", "result": "no significant inhibition"},
      {"measurement": "inhibition of R5/BaL", "setting": "HIV-1 R5/M-tropic BaL; [4]", "result": "inhibited"}
    ]},
    {"compound": "C[C@]12CCC(=O)C=C1CC[C@@H]1[C@@H]2[C@@H](O)C[C@@]2(C)[C@H]1CC[C@]2(O)C(=O)CO", "note": "[hydrocortisone]", "values": [
      {"measurement": "release of early pro-inflammatory molecules", "setting": "[1]; 1.5 μg/kg/minute at 10 ml/hr for six hours", "result": "significant enhancement"},
      {"measurement": "Plasma IL-6 after LPS, vs Control Group", "setting": "[1]; Pharm 3 μg/kg/min", "result": "no difference"},
      {"measurement": "Plasma IL-10 after LPS, vs Control Group", "setting": "[1]; Pharm 3 μg/kg/min", "result": "no difference"},
      {"measurement": "TNF-alpha concentrations in plasma after LPS, vs Control Group", "setting": "[1]; Pharm 3 μg/kg/min", "result": "not significantly different"},
      {"measurement": "plasma G-CSF concentrations after LPS, vs Control Group", "setting": "[1]; Pharm 3 μg/kg/min", "result": "no difference"},
      {"measurement": "TNF-alpha concentrations in plasma after LPS, vs Control Group", "setting": "[1]; Stress 1.5 μg/kg/min", "result": "not significantly different"},
      {"measurement": "ACTH concentrations, vs Control Group", "setting": "[1]; Stress 1.5 μg/kg/min, 3 and 4 hours after LPS injection", "result": "higher"},
      {"measurement": "plasma G-CSF concentrations after LPS, vs Control Group", "setting": "[1]; Stress 1.5 μg/kg/min", "result": "significant augmentation"},
      {"measurement": "Plasma IL-6 after LPS, vs Control Group", "setting": "[1]; Stress 1.5 μg/kg/min, p<0.005", "result": "significantly higher"},
      {"measurement": "Plasma IL-10 after LPS, vs Control Group", "setting": "[1]; Stress 1.5 μg/kg/min, p<0.05", "result": "significantly lower"}
    ]},
    {"compound": "NC(=O)c1ccc(-c2nc(-c3ccc4c(c3)OCO4)c(-c3ccccn3)[nH]2)cc1", "note": "[SB431542]", "values": [
      {"measurement": "modulatory effect of ECC-1 CM (suppression of DC-SIGN expression on MDDCs)", "setting": "[2]; SB431542 10 μM added with ECC-1 CM during differentiation", "result": "abrogated"},
      {"measurement": "expression of CD1a by CM-DC", "setting": "[2]; TGF-beta receptor blocker with ECC-1 CM", "result": "no significant effect"},
      {"measurement": "UEC conditioned medium effects on DC (enhanced CCR5 and CXCR4, suppressed DC-SIGN)", "setting": "[2]; in vitro differentiation", "result": "abolished these effects"}
    ]}
  ]
}
